In brackets after ≈: the same amount, converted by molar mass. Read-outs that look alike come from different tables or passages of the source.

Data on five molecules can be found in US9849130B2 (KamTek, Inc., priority 2014, dated 2017).

The subject of data set [1] is Enterococci faecium. Kind of data set: MIC by microdilution in Mueller-Hinton broth against Enterococci faecium strains. It counts as cell-based, Enterococcus faecium. Background: In broth dilution the organism is exposed to a series of concentrations in liquid medium.
Data set [2] has as its system Enterococcus faecalis. As to the kind of experiment: MIC by microdilution in Mueller-Hinton broth against Enterococcus faecalis strains. It counts as cell-based.
The conditions of data set [3]: cited from earlier work.
For data set [4] the following is noted: in vivo; cited from earlier work.
The nature of data set [5]: CFM formulations suitable for in vivo dosing (Table 18).
Data set [6] deals with CD. As to the kind of experiment: Animal model testing of CDI (Syrian Golden Hamster model), survival. It counts as in vivo.
For data set [7] the following is noted: cited from earlier work. This is another data set of the same source.
Data set [8] relates to CD strain VPI 1063. Kind of data set: MIC of CFM formulations following incubation with feces (supernatants). It counts as cell-based, Clostridium difficile. Particulars: for MIC: Clostridioides difficile.
Where [9] appears, read: E. faecium NR 31903, Mueller-Hinton broth.
Setting [10] is: E. faecium NR 31909, Mueller-Hinton broth.
Where [11] appears, read: E. faecium NR 31912, Mueller-Hinton broth.
The mark [12] stands for this setting: E. faecium NR 31915, Mueller-Hinton broth.
The mark [13] stands for this setting: E. faecium NR 31916, Mueller-Hinton broth.
[14] abbreviates: Enterococcus faecium, E. faecium NR 31903, Mueller-Hinton broth, read-out: MIC.
Setting [15] is: Enterococcus faecium, E. faecium NR 31909, Mueller-Hinton broth, read-out: MIC.
The mark [16] stands for this setting: Enterococcus faecium, E. faecium NR 31912, Mueller-Hinton broth, read-out: MIC.
Where [17] appears, read: Enterococcus faecium, E. faecium NR 31915, Mueller-Hinton broth, read-out: MIC.
[18] abbreviates: Enterococcus faecium, E. faecium NR 31916, Mueller-Hinton broth, read-out: MIC.
[19] abbreviates: Enterococcus faecalis, E. faecalis NR 31884, read-out: MIC.
The mark [20] stands for this setting: Enterococcus faecalis, E. faecalis NR 31885, read-out: MIC.
Setting [21] is: Enterococcus faecalis, E. faecalis NR 31886, read-out: MIC.
Setting [22] is: Enterococcus faecalis, E. faecalis NR 31887, read-out: MIC.
The mark [23] stands for this setting: Enterococcus faecalis, E. faecalis NR 31888, read-out: MIC.

As usually defined, the MIC is the lowest concentration that inhibits growth of the organism. Regarding `CCN=c1cc2n(-c3ccc(Cl)cc3)c3ccccc3nc-2cc1Nc1ccc(Cl)cc1` [B746], the MIC in data set [1] (setting [9]) came out at 2 µg/mL (≈ 4.35 µM); in data set [1] (setting [10]), 2 µg/mL (≈ 4.35 µM); in data set [1] (setting [11]) it was 2 µg/mL (≈ 4.35 µM); in data set [1] (setting [12]), 2 µg/mL (≈ 4.35 µM); in data set [1] (setting [13]), 2 µg/mL (≈ 4.35 µM); in data set [2] (E. faecalis NR 31884), 4 µg/mL (≈ 8.71 µM). Also, the MIC in data set [2] (E. faecalis NR 31885) turned out to be 4 µg/mL (≈ 8.71 µM); in data set [2] (E. faecalis NR 31886), 8 µg/mL (≈ 17.4 µM); in data set [2] (E. faecalis NR 31887), 4 µg/mL (≈ 8.71 µM); in data set [2] (E. faecalis NR 31888) it was 8 µg/mL (≈ 17.4 µM).
Turning to `CCN=c1cc2n(-c3cccc(C(F)(F)F)c3)c3ccccc3nc-2cc1Nc1cccc(C(F)(F)F)c1` [B4129], the MIC in data set [1] (setting [9]), in data set [1] (setting [10]), in data set [1] (setting [11]), in data set [1] (setting [12]), in data set [1] (setting [13]) and in data set [2] (E. faecalis NR 31884) was more than 32 µg/mL each time. The MIC in data set [2] (E. faecalis NR 31885), in data set [2] (E. faecalis NR 31886), in data set [2] (E. faecalis NR 31887) and in data set [2] (E. faecalis NR 31888) was more than 32 µg/mL in each case.
Usually solubility stands for the concentration that dissolves in the medium under given conditions. Regarding `CC(C)N=c1cc2n(-c3ccc(Cl)cc3)c3ccccc3nc-2cc1Nc1ccc(Cl)cc1` [CFM, 3-(p-chloroanilino)-10-(p-chlorophenyl)-2,10-dihydro-2-iso-propyliminophenazine], the minimum inhibitory concentration (MIC) in data set [1] (setting [14]) came out at 4 µg/mL (≈ 8.45 µM); in data set [1] (setting [15]), 2 µg/mL (≈ 4.22 µM); in data set [1] (setting [16]), 2 µg/mL (≈ 4.22 µM); in data set [1] (setting [17]), 16 µg/mL (≈ 33.8 µM); in data set [1] (setting [18]), 8 µg/mL (≈ 16.9 µM); in data set [2] (setting [19]), 32 µg/mL (≈ 67.6 µM). For the same molecule, the MIC is 32 µg/mL (≈ 67.6 µM) in data set [2] (setting [20]), 32 µg/mL (≈ 67.6 µM) in data set [2] (setting [21]), 16 µg/mL (≈ 33.8 µM) in data set [2] (setting [22]) and 32 µg/mL (≈ 67.6 µM) in data set [2] (setting [23]). Further, the solubility in water in data set [3] was 0.225 µg/mL (≈ 0.475 µM). In data set [4], the “gastrointestinal conditions including abdominal and epigastric pain, nausea, vomiting and/or diarrhea” value is 40-50 % of patients. In addition, the “icothyosis and dryness of skin” value in data set [4] was 8-28 % of patients. The “ocular conditions including conjunctival pigmentation, itching and dryness” value in data set [4] is on record as “approximately 1 % of patients”. For the same molecule, in data set [4], the rash and pruritus is given as 1-5 % of patients. Further, in data set [4], the skin pigmentation is 75-100 % of patients. The solubility in data set [5] (Cremophor-EL (100%, liquid), organic solvent or mixture, in Cremophor-EL, liquid, 100%) came to 8000 µg/mL (≈ 16900 µM); in data set [5] (Cremophor-EL (100%, liquid), organic solvent or mixture, in Cremophor-EL, liquid, 100%, if kept for long time (3-5 days)) it was 10000 µg/mL (≈ 21100 µM); in data set [5] (Phosal 50 PG (phospholipids), oil or lipid, in Phosal 50 PG (phospholipids), thick oily liquid) it was 10000 µg/mL (≈ 21100 µM); in data set [5] (Phosal 53 MCT (phospholipids), oil or lipid, in Phosal 53 MCT (phospholipids), thick oily liquid) it was 10000 µg/mL (≈ 21100 µM); in data set [5] (Tween 80 (100%, liquid), organic solvent or mixture, in Tween 80, liquid, 100%), 12000 µg/mL (≈ 25300 µM); in data set [5] (Tween 80 (100%, liquid), organic solvent or mixture, in Tween 80, liquid, 100%, if kept for long time (3-5 days)), 15000 µg/mL (≈ 31700 µM). Also, the solubility in data set [5] (olive oil, canola oil, and coconut oil (100%, liquid), oil or lipid, in Olive oil, canola oil, and coconut oil, liquid, 100%) came out at 5000 µg/mL (≈ 10600 µM); in data set [5] (polyethylene glycol (PEG-300, PEG-400), 100%, liquid, organic solvent or mixture, in Polyethylene glycol (PEG-300, PEG-400)), 5000 µg/mL (≈ 10600 µM). The Stability entry in data set [5] (in Cremophor-EL, liquid, 100%, remains stable following dilution in water/medium/saline/PBS) is “Stable, and remains”; in data set [5] (in Olive oil, canola oil, and coconut oil, diluted only in oils, forms emulsions in water), “Stable, should be”; in data set [5] (in Phosal 50 PG (phospholipids), forms emulsion in water) it was “Stable, clear, thick”; in data set [5] (in Phosal 53 MCT (phospholipids), forms emulsion in water), “Stable, clear, thick”; in data set [5] (in Tween 80, liquid, 100%, stable after dilution in water or culture medium, PBS, precipitates slowly in saline) it was “Stable undiluted,”. Also, the “protection at higher dosages” value in data set [6] (20 and 40 mg/kg versus 10 mg/kg) is recorded as “did not increase the protection”. The “protection during 28 days of observation” value in data set [6] (CFM dosage of 10 mg/kg) is 30%. The “survival for 27 days” value in data set [6] (CFM in aqueous suspension of CMC at 10 mg/kg/once a day) was determined as 30%. Besides, the “protection on animal survival by day 9 after infection” value in data set [6] (CFM in aqueous suspension of CMC, oral, 10 mg/kg/day, 5 days) is listed as 50%. In data set [6] (drug alone at the same dosage as in the combination (Lamprene 10 mg/kg twice a day)), the “survival by day 7” value amounted to 0%. Further, the half-life entry in data set [7] (after a single dose of 100 mg) is listed as “about 10 days”; in data set [7] (following long-term high dosage of 300 mg) it was “about 70 days”. The orally absorbed bioavailability in data set [7] (in vivo, po) was 45-65%.
In the case of `Cc1ncc([N+](=O)[O-])n1CCO` [MET, metronidazole], the MIC was more than 32 µg/mL in data set [1] (setting [14]); more than 32 µg/mL in data set [1] (setting [15]); more than 32 µg/mL in data set [1] (setting [16]); more than 32 µg/mL in data set [1] (setting [17]); more than 32 µg/mL in data set [1] (setting [18]); more than 32 µg/mL in data set [8] (VPI1063, 128 μg/ml in 20% feces, 2 hours at 37° C., centrifuged, supernatants filter sterilized and tested, CD strain VPI 1063, read-out: MIC in Fecal extracts). Moreover, the minimal inhibitory concentration (MIC) was 0.062 µg/mL in data set [8] (VPI1063, serial dilutions in BHI, without centrifugation, CD strain VPI 1063, read-out: MIC in BHI control); more than 32 µg/mL in data set [2] (setting [19]); more than 32 µg/mL in data set [2] (setting [20]); more than 32 µg/mL in data set [2] (setting [21]); more than 32 µg/mL in data set [2] (setting [22]); more than 32 µg/mL in data set [2] (setting [23]). In addition, the “MIC in Fecal extracts” value in data set [8] (128 μg/ml in 20% feces, 2 hours at 37° C., centrifuged, supernatants filter sterilized and tested, CD strain VPI 1063) was more than 32 µg/mL.
With `CN[C@H](CC(C)C)C(=O)N[C@H]1C(=O)N[C@@H](CC(N)=O)C(=O)N[C@H]2C(=O)N[C@H]3C(=O)N[C@H](C(=O)N[C@H](C(=O)O)c4cc(O)cc(O)c4-c4cc3ccc4O)[C@H](O)c3ccc(c(Cl)c3)Oc3cc2cc(c3O[C@@H]2O[C@H](CO)[C@@H](O)[C@H](O)[C@H]2O[C@H]2C[C@](C)(N)[C@H](O)[C@H](C)O2)Oc2ccc(cc2Cl)[C@H]1O` [VAN, vancomycin], the MIC in data set [1] (setting [10]) is more than 32 µg/mL; in data set [1] (setting [11]) it was more than 32 µg/mL; in data set [1] (setting [12]), more than 32 µg/mL; in data set [1] (setting [13]) it was more than 32 µg/mL; in data set [1] (Enterococcus faecium), more than 32 µg/mL; in data set [8] (VPI1063, 2 h, read-out: MIC in Centrifuged BHI control) it was 0.5 µg/mL. Besides, the minimum inhibitory concentration (MIC) was 1 µg/mL in data set [8] (VPI1063, 2 h, read-out: MIC in Fecal extracts); 0.5 µg/mL in data set [8] (VPI1063, read-out: MIC in BHI control); 2 µg/mL (≈ 1.38 µM) in data set [2] (Enterococcus faecalis, E. faecalis NR 31884); 2 µg/mL (≈ 1.38 µM) in data set [2] (Enterococcus faecalis, E. faecalis NR 31885); 1 µg/mL (≈ 0.69 µM) in data set [2] (Enterococcus faecalis, E. faecalis NR 31886); 1 µg/mL (≈ 0.69 µM) in data set [2] (Enterococcus faecalis, E. faecalis NR 31887). This molecule registered an MIC in data set [2] (Enterococcus faecalis, E. faecalis NR 31888) of 2 µg/mL (≈ 1.38 µM). Further, the “increase in MIC after incubation in feces” value in data set [8] (Table 21) came out at 2 fold. Further, the “survival by day 14” value in data set [6] (drug alone at the same dosage as in the combination (VAN 5 mg/kg twice a day)) stood at 0%.
